Results from patent US12581252B2, “Substituted pyrrolo[3,4-b]pyridines as PI3K-α inhibitors” (Relay Therapeutics, Inc., priority 2020, dated 2026).
pIC50: −log10 of the molar value.

Biological target: H1047R PIK3CA enzyme (Homo sapiens, UniProt P42336, H1047R)
Assay: ADP-Glo Biochemical PIK3CA Kinase Assay

Chain of H1047R PIK3CA enzyme (P42336 whole entry H1047R): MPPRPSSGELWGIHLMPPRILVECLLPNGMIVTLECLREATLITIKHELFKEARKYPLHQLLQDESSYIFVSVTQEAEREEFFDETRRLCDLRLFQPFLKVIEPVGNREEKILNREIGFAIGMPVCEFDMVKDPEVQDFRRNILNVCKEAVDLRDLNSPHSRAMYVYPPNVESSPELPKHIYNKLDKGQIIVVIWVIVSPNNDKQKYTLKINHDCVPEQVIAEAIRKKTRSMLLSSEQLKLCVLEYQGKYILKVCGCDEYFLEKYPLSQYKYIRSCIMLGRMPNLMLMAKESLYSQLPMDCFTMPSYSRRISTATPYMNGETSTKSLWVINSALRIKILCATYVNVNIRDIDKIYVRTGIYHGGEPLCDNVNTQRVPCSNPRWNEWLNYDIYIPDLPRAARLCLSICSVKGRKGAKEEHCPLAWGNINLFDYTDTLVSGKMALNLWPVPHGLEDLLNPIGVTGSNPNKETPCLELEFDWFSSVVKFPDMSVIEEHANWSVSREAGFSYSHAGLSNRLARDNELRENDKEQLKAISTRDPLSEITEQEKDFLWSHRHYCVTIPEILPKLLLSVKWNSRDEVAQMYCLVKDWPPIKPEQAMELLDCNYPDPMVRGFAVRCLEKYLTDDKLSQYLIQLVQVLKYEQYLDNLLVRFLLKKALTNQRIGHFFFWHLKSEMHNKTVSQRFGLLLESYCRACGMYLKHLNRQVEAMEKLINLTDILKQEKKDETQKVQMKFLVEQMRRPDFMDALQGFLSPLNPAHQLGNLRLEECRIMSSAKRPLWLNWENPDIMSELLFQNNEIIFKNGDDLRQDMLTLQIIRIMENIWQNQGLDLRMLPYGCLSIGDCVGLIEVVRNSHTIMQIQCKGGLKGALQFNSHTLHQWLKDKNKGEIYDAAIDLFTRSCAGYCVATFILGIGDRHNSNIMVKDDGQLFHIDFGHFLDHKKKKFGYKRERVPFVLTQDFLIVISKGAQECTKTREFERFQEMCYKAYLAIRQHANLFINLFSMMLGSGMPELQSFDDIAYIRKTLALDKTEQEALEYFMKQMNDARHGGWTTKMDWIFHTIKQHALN
Chain of H1047R PIK3CA enzyme (P27986 whole entry partner): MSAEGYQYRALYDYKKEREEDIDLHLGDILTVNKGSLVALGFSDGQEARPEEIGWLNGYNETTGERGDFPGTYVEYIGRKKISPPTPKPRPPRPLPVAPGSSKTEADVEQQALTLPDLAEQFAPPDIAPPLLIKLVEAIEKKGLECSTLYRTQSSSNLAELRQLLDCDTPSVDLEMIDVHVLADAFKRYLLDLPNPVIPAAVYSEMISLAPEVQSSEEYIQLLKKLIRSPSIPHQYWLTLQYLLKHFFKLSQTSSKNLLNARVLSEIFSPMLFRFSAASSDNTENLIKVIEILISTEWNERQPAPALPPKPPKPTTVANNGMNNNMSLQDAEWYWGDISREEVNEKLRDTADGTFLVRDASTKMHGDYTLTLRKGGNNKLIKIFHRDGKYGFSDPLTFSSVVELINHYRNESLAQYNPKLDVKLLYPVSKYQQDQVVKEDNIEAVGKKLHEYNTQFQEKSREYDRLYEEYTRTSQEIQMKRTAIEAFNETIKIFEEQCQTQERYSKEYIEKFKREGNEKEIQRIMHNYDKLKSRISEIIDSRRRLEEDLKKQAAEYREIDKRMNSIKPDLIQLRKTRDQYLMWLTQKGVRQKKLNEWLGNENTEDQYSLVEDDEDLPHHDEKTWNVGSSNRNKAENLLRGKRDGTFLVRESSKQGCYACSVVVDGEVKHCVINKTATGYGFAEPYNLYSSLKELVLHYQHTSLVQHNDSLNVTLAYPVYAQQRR

Row | SMILES | pIC50
1 | NC(=O)CCN(C(=O)c1cc(F)cc(C(F)(F)F)c1)c1cc(O)cc2c1C(c1cc(F)ccc1Cl)NC2=O (centres unmarked) [Compound I-2309] | 4.00 to 5.00
2 | COC1CCCC(C(=O)Nc2cc(-c3ccc4ncnn4c3)cc3c2C(c2cc(F)ccc2Cl)NC3=O)C1 (mixture of isomers) [Compound I-2037] | 4.00 to 5.00
3 | O=C(Nc1cccc2c1C(C(=O)NC1CCCCC1)NC2=O)c1cc(F)cc(C(F)(F)F)c1 (centres unmarked) [Compound I-2054] | 4.00 to 5.00
4 | O=C(Nc1cc(-c2cn3ncnc3cn2)cc2c1C(c1cc(F)ccc1Cl)NC2=O)c1cc(F)cc(Cl)c1 (centres unmarked) [Compound I-2267] | 5.00 to 6.00
5 | O=C(Nc1cc(-c2ccnn2C[C@@H]2CCOC2)cc2c1C(c1cc(F)ccc1Cl)NC2=O)c1cc(F)cc(C(F)(F)F)c1 (single isomer, unassigned) [Compound I-1407] | ≥ 7.00
6 | CC(C)(O)C12CC(C(=O)Nc3cccc4c3C(c3cc(F)ccc3Cl)NC4=O)(C1)C2 (centres unmarked) [Compound I-2117] | 4.00 to 5.00
7 | C[C@H](C#N)Oc1cc(NC(=O)c2cc(F)cc(C(F)(F)F)c2)c2c(c1)C(=O)N[C@@H]2c1cc(F)ccc1Cl (single isomer, unassigned) [Compound I-2005] | 5.00 to 6.00
8 | O=C1N[C@H](c2cc(F)ccc2Cl)c2c(NC(=O)N3C[C@H](O)C[C@@H]3CC(F)(F)F)cccc21 (racemic) [Compound I-2163] | 4.00 to 5.00
9 | O=C1N[C@@H](c2cc(F)ccc2Cl)c2c(N[C@H]3CCOc4ccccc43)cc(-c3cnn(C(F)F)c3)nc21 [Compound I-2082] | 4.00 to 5.00
10 | O=C(Nc1cc(-c2ccc3ncccc3c2)cc2c1C(c1cc(F)ccc1Cl)NC2=O)c1cc(F)cc(C(F)(F)F)c1 (centres unmarked) [Compound I-737] | ≥ 7.00
11 | O=C(Nc1cc(Br)cc2c1[C@H](c1cc(F)ccc1C(F)F)NC2=O)c1cc(F)cc(C(F)(F)F)c1 [Compound I-797] | ≥ 7.00
12 | CN1CCN(c2cc(NC(=O)c3cc(F)cc(C(F)(F)F)c3)c3c(c2)C(=O)NC3c2cc(F)ccc2Cl)CC1 (centres unmarked) [Compound I-304] | ≥ 7.00
13 | O=C(Nc1cc(-c2ccc3c(c2)OCO3)cc2c1C(c1cc(F)ccc1Cl)NC2=O)c1cc(F)cc(C(F)(F)F)c1 (centres unmarked) [Compound I-741] | ≥ 7.00
14 | O=C1NC(c2cc(F)ccc2Cl)c2c(NC(=O)N3CCCC3C3CC3)cccc21 (centres unmarked) [Compound I-2408] | 4.00 to 5.00
15 | O=C(Nc1cccc2c1C1(CCc3ccccc31)NC2=O)c1cc(F)cc(C(F)(F)F)c1 (centres unmarked) [Compound I-188] | 4.00 to 5.00
16 | CC(C)(CN)n1cc(-c2cc(NC(=O)N3C[C@](O)(C(F)(F)F)c4cc(F)ccc43)c3c(c2)C(=O)N[C@H]3c2cc(F)ccc2Cl)cn1 (single isomer, unassigned) [Compound I-2652] | 5.00 to 6.00
17 | O=C(Nc1cc(-c2ccc3ncnn3c2)nc2c1C(C1CCCCO1)NC2=O)c1cc(F)cc(C(F)(F)F)c1 (centres unmarked) [Compound I-1706] | 4.00 to 5.00
18 | O=C1NCc2c(NC(=O)N3CCCCC3Cc3ccccc3)cccc21 (centres unmarked) [Compound I-990] | 4.00 to 5.00

Row | SMILES | pIC50
19 | O=C(Nc1cc(N2CCOCC2)nc2c1C(c1cc(F)ccc1Cl)NC2=O)c1cc(F)cc(C(F)(F)F)c1 (centres unmarked) [Compound I-358] | ≥ 7.00
20 | O=C1NC(c2cc(F)ccc2Cl)c2c(NC(=O)C3CC4(C3)CC4(F)F)cc(Br)cc21 (centres unmarked) [Compound I-1634] | 4.00 to 5.00
21 | C[C@H](C#N)Oc1cc(NC(=O)c2cc(F)cc(C(F)(F)F)c2)c2c(c1)C(=O)N[C@H]2c1cc(F)ccc1Cl (single isomer, unassigned) [Compound I-2006] | ≥ 7.00
22 | O=C(Nc1cc(OCC2CC2)cc2c1C(c1cc(F)ccc1Cl)NC2=O)c1cc(F)cc(C(F)(F)F)c1 (centres unmarked) [Compound I-2134] | 6.30 to 7.00
23 | O=C(Nc1cc(OCC(F)F)cc2c1[C@H](c1cc(F)ccc1Cl)NC2=O)c1cc(F)cc(C(F)(F)F)c1 [Compound I-2062] | ≥ 7.00
24 | O=C1NC(c2cc(F)ccc2Cl)c2c(NC(=O)N3CCn4c(nnc4C(F)(F)F)C3)cccc21 (centres unmarked) [Compound I-2111] | 4.00 to 5.00
25 | [2H][C@@]1(c2cc(F)ccc2Cl)NC(=O)c2cccc(NC(=O)N3C[C@](O)(C(F)(F)F)c4cc(F)ccc43)c21 (single isomer, unassigned) [Compound I-2681] | 5.00 to 6.00
26 | O=C1N[C@H](c2cc(F)ccc2Cl)c2c(NC(=O)N3C[C@@H](O)c4cc(F)ccc43)cc(-c3cnn(C(F)F)c3)cc21 (single isomer, unassigned) [Compound I-2476] | 4.00 to 5.00
27 | CS(=O)(=O)N1CCC[C@H]1COc1cc(NC(=O)c2cc(F)cc(C(F)(F)F)c2)c2c(c1)C(=O)NC2c1cc(F)ccc1Cl (single isomer, unassigned) [Compound I-1375] | ≥ 7.00
28 | O=C(Nc1cc(-c2cnn(-c3ncc(F)cn3)c2)cc2c1C(c1cc(F)ccc1Cl)NC2=O)c1cc(F)cc(C(F)(F)F)c1 (centres unmarked) [Compound I-1616] | ≥ 7.00
29 | O=C(Nc1cc(Br)cc2c1C(c1cc(F)ccc1Cl)NC2=O)c1cc(F)cc(C(F)(F)F)c1Cl (centres unmarked) [Compound I-809] | 5.00 to 6.00
30 | CC(C)(C)CCC1NC(=O)c2cccc(NC(=O)c3cc(F)cc(C(F)(F)F)c3)c21 (centres unmarked) [Compound I-2196] | 5.00 to 6.00
31 | [2H]C1(c2cc(F)ccc2Cl)NC(=O)c2cc(-c3ccc4ncnn4c3)cc(NC(=O)c3cc(F)cc(C(F)(F)F)c3)c21 (centres unmarked) [Compound I-1413] | ≥ 7.00
32 | O=C(Nc1cc(N2CC(F)(F)C2)cc2c1C(c1cc(F)ccc1Cl)NC2=O)c1cc(F)cc(C(F)(F)F)c1 (centres unmarked) [Compound I-370] | ≥ 7.00
33 | O=C(Nc1cc(-c2ccnn2C2COC2)cc2c1C(c1cc(F)ccc1Cl)NC2=O)c1cc(F)cc(C(F)(F)F)c1 (centres unmarked) [Compound I-1037] | ≥ 7.00
34 | O=C(Nc1cc(C(O)C2(O)COC2)cc2c1C(c1cc(F)ccc1Cl)NC2=O)c1cc(F)cc(C(F)(F)F)c1 (centres unmarked) [Compound I-1337] | 6.30 to 7.00
35 | N#CCc1cc(NC(=O)N2C[C@@](O)(C(F)(F)F)c3cc(F)ccc32)c2c(c1)C(=O)N[C@H]2c1cc(F)ccc1Cl (single isomer, unassigned) [Compound I-2624] | 5.00 to 6.00

Other lines, results leading:

Row | pIC50 | SMILES
36 | ≥ 7.00 | Cc1nc2cc(-c3cc(NC(=O)c4cc(F)cc(C(F)(F)F)c4)c4c(c3)C(=O)NC4c3cc(F)ccc3Cl)ccc2o1 (centres unmarked) [Compound I-1036]
37 | 4.00 to 5.00 | CC(=O)N[C@H]1CC[C@@H](C(=O)Nc2cc(-c3ccc4ncnn4c3)cc3c2C(c2cc(F)ccc2Cl)NC3=O)CC1 (mixture of isomers) [Compound I-1849]
38 | 5.00 to 6.00 | O=C(Nc1ccc(F)cc1F)Nc1ccnc2c1C(c1ccccc1Cl)NC2=O (centres unmarked) [Compound I-245]
39 | 6.30 to 7.00 | Cc1ccccc1C1NC(=O)c2cc(C(C)C)cc(NC(=O)c3cc(F)cc(C(F)(F)F)c3)c21 (centres unmarked) [Compound I-266, 3-Fluoro-N-[3-(2-methylphenyl)-6-(isopropyl)-1-oxo-2,3-dihydro-1H-isoindol-4-yl]-5-(trifluoromethyl)benzamide]
40 | ≥ 7.00 | CC(C)(O)c1cc(NC(=O)c2cc(Cl)n3ccccc23)c2c(c1)C(=O)NC2c1cc(F)ccc1C(F)F (centres unmarked) [Compound I-267]
41 | 5.00 to 6.00 | O=C1NC(c2cc(F)ccc2Cl)c2c(NC(=O)N3CCc4c(Cl)cccc43)cccc21 (centres unmarked) [Compound I-2442]
42 | ≥ 7.00 | O=C(Nc1cc(C(O)c2ccccn2)cc2c1C(c1cc(F)ccc1Cl)NC2=O)c1cc(F)cc(C(F)(F)F)c1 (centres unmarked) [Compound I-1278]
43 | 5.00 to 6.00 | O=C1N[C@@H](c2cc(F)ccc2Cl)c2c(NC(=O)N3C[C@@H](O)c4cc(F)ccc43)cc(-n3cccn3)cc21 (single isomer, unassigned) [Compound I-2366]
44 | ≥ 7.00 | CC(=O)c1cc(NC(=O)c2cc(F)cc(C(F)(F)F)c2)c2c(c1)C(=O)NC2c1cc(F)ccc1C(F)F (centres unmarked) [Compound I-238]
45 | 5.00 to 6.00 | O=C(Nc1cccc2c1C(c1cc(F)ccc1Cl)NC2=O)c1cc(B(O)O)cc(C(F)(F)F)c1 (centres unmarked) [Compound I-450]
46 | 5.00 to 6.00 | O=C(Nc1cc(Br)cc2c1[C@@H](c1cc(Cl)ccc1Cl)NC2=O)c1cc(F)cc(C(F)(F)F)c1 [Compound I-764]
47 | ≥ 7.00 | CNS(=O)(=O)Cc1cc(NC(=O)c2cc(F)cc(C(F)(F)F)c2)c2c(c1)C(=O)N[C@H]2c1cc(F)ccc1Cl [Compound I-1534]
48 | 5.00 to 6.00 | C[C@]1(O)CN(C(=O)Nc2cccc3c2[C@@H](c2cc(F)ccc2Cl)NC3=O)c2ccccc21 (single isomer, unassigned) [Compound I-2203]
49 | 5.00 to 6.00 | Cc1ccccc1C1NC(=O)c2cccc(NC(=O)c3noc4ccc(Cl)cc34)c21 (centres unmarked) [Compound I-200]
50 | 6.30 to 7.00 | O=C(Nc1cc(-c2ccc3ncnn3c2)cc2c1[C@H](c1cc(F)ccc1Cl)NC2=O)c1cc(F)cc(OC(F)F)c1 (stereo in doubt) [Compound I-1169]
51 | 6.00 to 6.30 | O=C(Nc1cc(Br)cc2c1C(c1cc(F)ccc1Cl)NC2=O)c1cccc(Cl)c1 (centres unmarked) [Compound I-573]
52 | 6.00 to 6.30 | COC(=O)c1cc(NC(=O)c2nsc3ccccc23)c2c(c1)C(=O)NC2c1ccccc1C (centres unmarked) [Compound I-314]
53 | ≥ 7.00 | COCc1cc(NC(=O)c2cc(F)cc(C(F)(F)F)c2)c2c(c1)C(=O)NC2c1cc(F)ccc1Cl (centres unmarked) [Compound I-611]
54 | 4.00 to 5.00 | Cc1ncc(-c2cc(NC(=O)c3cc(F)cc(Cl)c3)c3c(c2)C(=O)N[C@@H]3c2cc(F)ccc2Cl)cn1 [Compound I-895]
55 | ≥ 7.00 | O=C(Nc1cc(CS(=O)(=O)c2ccccc2)cc2c1C(c1cc(F)ccc1Cl)NC2=O)c1cc(F)cc(C(F)(F)F)c1 (centres unmarked) [Compound I-1436]
56 | 5.00 to 6.00 | N#Cc1cc(F)cc(C(=O)Nc2cc(Br)cc3c2C(c2cc(F)ccc2Cl)NC3=O)c1 (centres unmarked) [Compound I-910]
57 | 5.00 to 6.00 | O=C1N[C@H](c2cc(F)ccc2Cl)c2c(NC(=O)N3C[C@](O)(C(F)(F)F)c4ccccc43)cccc21 (single isomer, unassigned) [Compound I-2385]
58 | 4.00 to 5.00 | Cc1ccccc1C1NC(=O)c2cccc(NC(=O)c3ncc4c(F)cc(F)cn34)c21 (centres unmarked) [Compound I-180, 6,8-Difluoro-N-(1-oxo-3-(o-tolyl)isoindolin-4-yl)imidazo[1,5-a]pyridine-3-carboxamide]
59 | 5.00 to 6.00 | O=C(Nc1cccc2c1C(c1cc(O)ccc1Cl)NC2=O)c1cc(F)cc(C(F)(F)F)c1 (centres unmarked) [Compound I-428]
60 | ≥ 7.00 | O=C1NC(c2cc(F)ccc2Cl)c2c(NC(=O)n3ccc4ccccc43)cc(Br)cc21 (centres unmarked) [Compound I-1318]
61 | 5.00 to 6.00 | O=C(Nc1cccc2c1C(c1cc(F)ccc1Cl)NC2=O)c1cc(C(F)(F)F)cc(Cl)n1 (centres unmarked) [Compound I-724]
62 | 4.00 to 5.00 | Cc1ccccc1C1NC(=O)c2cccc(NC(=O)c3ccsn3)c21 (centres unmarked) [Compound I-451]
